Where two headings read alike, the source gives them in different places.
What was measured:
Experiment in all cases: Kinase panel
Format in all cases: biochemical
KDR/VEGFR2 = KDR/VEGFR2 (Homo sapiens, UniProt P35968); conditions: KDR/VEGFR2, 1 µM; read-out: residual enzyme activity
In short: (§1)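 Each listed kinase was assayed biochemically in the presence of 1 µM compound, and the calculated value is residual enzyme activity. Identification criterion was inhibition reaching 60% or more.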

CDK16/CYCLIN Y (PCTAIRE) = CDK16/CYCLIN Y (PCTAIRE) (Homo sapiens, UniProt Q00536); conditions: read-out: residual enzyme activity
In short: as §1

IRR/INSRR = IRR/INSRR (Homo sapiens, UniProt P14616); conditions: read-out: residual enzyme activity
In short: as §1

MLK4 = MLK4 (Homo sapiens, UniProt Q5TCX8); conditions: MLK4, 1 µM; read-out: residual enzyme activity
In short: as §1

BRSK2 = BRSK2 (Homo sapiens, UniProt Q8IWQ3); conditions: BRSK2, 1 µM; read-out: residual enzyme activity
In short: as §1

TTBK1 = TTBK1 (Homo sapiens, UniProt Q5TCY1); conditions: TTBK1, 1 µM; read-out: residual enzyme activity
In short: as §1

SIK1 = SIK1 (Homo sapiens, UniProt P57059); conditions: SIK1, 1 µM; read-out: residual enzyme activity
Sequence of SIK1 (P57059 whole entry, species assumed): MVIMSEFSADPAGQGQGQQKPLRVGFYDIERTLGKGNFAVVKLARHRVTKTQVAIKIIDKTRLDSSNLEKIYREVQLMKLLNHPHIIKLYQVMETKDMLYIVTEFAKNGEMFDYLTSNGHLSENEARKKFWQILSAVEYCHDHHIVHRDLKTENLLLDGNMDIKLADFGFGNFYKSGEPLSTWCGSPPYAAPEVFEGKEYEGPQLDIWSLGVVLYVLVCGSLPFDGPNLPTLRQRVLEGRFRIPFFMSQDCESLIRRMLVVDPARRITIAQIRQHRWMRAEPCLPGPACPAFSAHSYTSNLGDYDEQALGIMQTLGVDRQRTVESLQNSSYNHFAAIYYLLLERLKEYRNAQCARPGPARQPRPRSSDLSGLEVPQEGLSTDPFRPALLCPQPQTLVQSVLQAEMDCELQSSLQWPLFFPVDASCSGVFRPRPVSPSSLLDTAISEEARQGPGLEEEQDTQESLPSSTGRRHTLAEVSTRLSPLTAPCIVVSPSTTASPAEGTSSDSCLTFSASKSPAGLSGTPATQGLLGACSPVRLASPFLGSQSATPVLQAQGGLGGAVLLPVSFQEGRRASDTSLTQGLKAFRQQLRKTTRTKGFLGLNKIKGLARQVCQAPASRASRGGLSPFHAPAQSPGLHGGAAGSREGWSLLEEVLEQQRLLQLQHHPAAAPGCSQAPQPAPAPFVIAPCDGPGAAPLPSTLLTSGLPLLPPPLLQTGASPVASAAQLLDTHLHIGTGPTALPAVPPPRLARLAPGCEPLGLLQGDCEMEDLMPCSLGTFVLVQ
In short: as §1

C-KIT = C-KIT (Homo sapiens, UniProt P10721); conditions: read-out: residual enzyme activity
In short: as §1

TTBK2 = TTBK2 (Homo sapiens, UniProt Q6IQ55); conditions: TTBK2, 1 µM; read-out: residual enzyme activity
Sequence of TTBK2 (Q6IQ55 whole entry, species assumed): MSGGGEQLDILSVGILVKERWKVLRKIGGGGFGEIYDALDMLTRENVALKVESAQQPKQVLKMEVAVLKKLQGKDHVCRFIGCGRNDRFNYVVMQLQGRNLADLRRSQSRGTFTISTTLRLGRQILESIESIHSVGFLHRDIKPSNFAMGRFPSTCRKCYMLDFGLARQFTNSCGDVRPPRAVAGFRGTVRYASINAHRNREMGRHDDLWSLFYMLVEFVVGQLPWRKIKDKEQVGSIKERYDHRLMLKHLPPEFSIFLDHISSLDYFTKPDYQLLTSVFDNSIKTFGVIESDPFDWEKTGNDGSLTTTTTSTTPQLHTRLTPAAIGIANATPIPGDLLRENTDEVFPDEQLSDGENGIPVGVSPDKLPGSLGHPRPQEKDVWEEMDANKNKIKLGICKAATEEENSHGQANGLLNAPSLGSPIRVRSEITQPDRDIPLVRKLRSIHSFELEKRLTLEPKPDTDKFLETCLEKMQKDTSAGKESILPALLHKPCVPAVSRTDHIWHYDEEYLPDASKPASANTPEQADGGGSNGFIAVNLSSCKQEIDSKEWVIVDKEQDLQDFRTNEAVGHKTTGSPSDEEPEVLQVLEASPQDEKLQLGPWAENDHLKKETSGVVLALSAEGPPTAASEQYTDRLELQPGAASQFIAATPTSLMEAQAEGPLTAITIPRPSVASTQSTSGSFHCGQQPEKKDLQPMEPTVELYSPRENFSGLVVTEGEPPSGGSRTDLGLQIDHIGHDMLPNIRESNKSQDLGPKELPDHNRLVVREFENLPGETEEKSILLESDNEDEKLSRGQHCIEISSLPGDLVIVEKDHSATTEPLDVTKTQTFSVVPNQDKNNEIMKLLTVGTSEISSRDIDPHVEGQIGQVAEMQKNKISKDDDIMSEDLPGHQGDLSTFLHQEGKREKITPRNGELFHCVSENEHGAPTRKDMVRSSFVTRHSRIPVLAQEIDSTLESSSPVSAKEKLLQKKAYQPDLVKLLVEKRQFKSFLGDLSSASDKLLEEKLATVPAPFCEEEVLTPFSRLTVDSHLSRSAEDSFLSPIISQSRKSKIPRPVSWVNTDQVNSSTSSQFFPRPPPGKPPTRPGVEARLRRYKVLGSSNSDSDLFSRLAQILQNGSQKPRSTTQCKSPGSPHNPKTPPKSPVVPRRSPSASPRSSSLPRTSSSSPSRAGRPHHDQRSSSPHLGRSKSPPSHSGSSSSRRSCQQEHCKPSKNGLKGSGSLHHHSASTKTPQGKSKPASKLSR
In short: as §1

CDK2/CYCLIN A = CDK2/CYCLIN A (Homo sapiens, UniProt P24941); conditions: read-out: residual enzyme activity
In short: as §1

PBK/TOPK = PBK/TOPK (Homo sapiens, UniProt Q96KB5); conditions: read-out: residual enzyme activity
In short: as §1

CDK1/CYCLIN B = CDK1/CYCLIN B (Homo sapiens, UniProt P06493); conditions: read-out: residual enzyme activity
In short: as §1

MYLK3 = MYLK3 (Homo sapiens, UniProt Q32MK0); conditions: MYLK3, 1 µM; read-out: residual enzyme activity
In short: as §1

CAMK4 = CAMK4 (Homo sapiens, UniProt Q16566); conditions: CAMK4, 1 µM; read-out: residual enzyme activity
In short: as §1

MSK1/RPS6KA5 = MSK1/RPS6KA5 (Homo sapiens, UniProt O75582); conditions: MSK1/RPS6KA5, 1 µM; read-out: residual enzyme activity
In short: as §1

RSK1 = RSK1 (Homo sapiens, UniProt Q15418); conditions: RSK1, 1 µM; read-out: residual enzyme activity
In short: as §1

ROCK2 = ROCK2 (Homo sapiens, UniProt O75116); conditions: ROCK2, 1 µM; read-out: residual enzyme activity
Sequence of ROCK2 (O75116 whole entry, species assumed): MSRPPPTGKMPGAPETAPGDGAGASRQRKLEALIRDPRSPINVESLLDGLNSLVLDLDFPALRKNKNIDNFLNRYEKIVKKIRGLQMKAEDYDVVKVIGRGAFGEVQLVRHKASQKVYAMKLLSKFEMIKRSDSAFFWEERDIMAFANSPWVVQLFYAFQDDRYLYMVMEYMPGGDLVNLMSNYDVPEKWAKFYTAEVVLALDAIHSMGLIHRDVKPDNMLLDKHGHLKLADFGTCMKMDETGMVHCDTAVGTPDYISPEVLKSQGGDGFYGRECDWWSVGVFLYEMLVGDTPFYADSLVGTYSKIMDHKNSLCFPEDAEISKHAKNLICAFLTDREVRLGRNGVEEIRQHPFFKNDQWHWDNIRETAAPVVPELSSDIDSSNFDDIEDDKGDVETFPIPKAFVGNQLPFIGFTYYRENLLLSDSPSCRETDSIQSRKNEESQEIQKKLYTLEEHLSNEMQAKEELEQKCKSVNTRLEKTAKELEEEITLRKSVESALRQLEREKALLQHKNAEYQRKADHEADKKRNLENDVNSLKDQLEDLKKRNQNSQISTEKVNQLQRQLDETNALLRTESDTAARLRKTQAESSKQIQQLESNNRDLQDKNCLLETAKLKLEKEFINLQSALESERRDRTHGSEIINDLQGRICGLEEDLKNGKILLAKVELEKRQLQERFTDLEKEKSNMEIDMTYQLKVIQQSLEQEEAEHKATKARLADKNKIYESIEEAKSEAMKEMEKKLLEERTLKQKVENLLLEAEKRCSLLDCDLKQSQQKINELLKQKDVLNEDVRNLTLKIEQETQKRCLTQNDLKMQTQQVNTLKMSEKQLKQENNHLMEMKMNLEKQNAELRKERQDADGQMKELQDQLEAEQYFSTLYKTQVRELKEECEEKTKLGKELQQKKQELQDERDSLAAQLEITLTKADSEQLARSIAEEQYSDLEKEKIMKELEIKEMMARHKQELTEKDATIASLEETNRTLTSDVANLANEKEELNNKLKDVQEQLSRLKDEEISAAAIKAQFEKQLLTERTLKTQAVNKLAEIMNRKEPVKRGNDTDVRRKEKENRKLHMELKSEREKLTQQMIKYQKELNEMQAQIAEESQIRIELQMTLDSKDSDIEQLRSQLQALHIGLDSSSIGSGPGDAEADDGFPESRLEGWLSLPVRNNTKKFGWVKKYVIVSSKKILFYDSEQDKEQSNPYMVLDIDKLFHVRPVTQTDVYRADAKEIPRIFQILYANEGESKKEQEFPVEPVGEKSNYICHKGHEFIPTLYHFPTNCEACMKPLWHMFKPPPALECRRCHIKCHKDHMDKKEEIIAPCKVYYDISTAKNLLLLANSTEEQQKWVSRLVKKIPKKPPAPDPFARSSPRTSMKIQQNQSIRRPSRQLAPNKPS
In short: as §1

CK2A = CK2A (Homo sapiens, UniProt P68400); conditions: read-out: residual enzyme activity
In short: as §1

NEK7 = NEK7 (Homo sapiens, UniProt Q8TDX7); conditions: NEK7, 1 µM; read-out: residual enzyme activity
In short: as §1

DRAK1/STK17A = DRAK1/STK17A (Homo sapiens, UniProt Q9UEE5); conditions: read-out: residual enzyme activity
In short: as §1

CAMK2D = CAMK2D (Homo sapiens, UniProt Q13557); conditions: read-out: residual enzyme activity
In short: as §1

ALK4/ACVR1B = ALK4/ACVR1B (Homo sapiens, UniProt P36896); conditions: read-out: residual enzyme activity
In short: as §1

HIPK3 = HIPK3 (Homo sapiens, UniProt Q9H422); conditions: HIPK3, 1 µM; read-out: residual enzyme activity
In short: as §1

MAPKAPKS/PRAK = MAPKAPKS/PRAK (Homo sapiens, UniProt Q8IW41); conditions: read-out: residual enzyme activity
Sequence of MAPKAPKS/PRAK (Q8IW41 whole entry): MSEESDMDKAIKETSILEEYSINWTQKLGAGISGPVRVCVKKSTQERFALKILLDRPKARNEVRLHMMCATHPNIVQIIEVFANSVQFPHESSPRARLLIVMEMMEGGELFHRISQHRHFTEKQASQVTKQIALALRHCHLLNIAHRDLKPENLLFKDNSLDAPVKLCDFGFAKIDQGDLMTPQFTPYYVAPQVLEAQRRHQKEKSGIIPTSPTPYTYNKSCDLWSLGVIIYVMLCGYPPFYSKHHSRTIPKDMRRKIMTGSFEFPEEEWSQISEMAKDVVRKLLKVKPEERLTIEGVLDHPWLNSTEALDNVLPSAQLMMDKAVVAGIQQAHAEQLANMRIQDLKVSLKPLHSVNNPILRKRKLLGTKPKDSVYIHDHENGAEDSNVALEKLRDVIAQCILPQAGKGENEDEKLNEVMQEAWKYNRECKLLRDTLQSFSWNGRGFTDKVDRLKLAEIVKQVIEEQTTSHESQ
In short: as §1

FGFR1 = FGFR1 (Homo sapiens, UniProt P11362); conditions: FGFR1, 1 µM; read-out: residual enzyme activity
In short: as §1

TAOK3/JIK = TAOK3/JIK (Homo sapiens, UniProt Q9H2K8); conditions: read-out: residual enzyme activity
In short: as §1

ARAF = conditions: 1 µM
In short: as §1

RSK2 = RSK2 (Homo sapiens, UniProt P51812); conditions: RSK2, 1 µM; read-out: residual enzyme activity
In short: as §1

GRK3 = GRK3 (Homo sapiens, UniProt P35626); conditions: GRK3, 1 µM; read-out: residual enzyme activity
In short: as §1

ULK1 = ULK1 (Homo sapiens, UniProt O75385); conditions: ULK1, 1 µM; read-out: residual enzyme activity
Sequence of ULK1 (O75385 whole entry, species assumed): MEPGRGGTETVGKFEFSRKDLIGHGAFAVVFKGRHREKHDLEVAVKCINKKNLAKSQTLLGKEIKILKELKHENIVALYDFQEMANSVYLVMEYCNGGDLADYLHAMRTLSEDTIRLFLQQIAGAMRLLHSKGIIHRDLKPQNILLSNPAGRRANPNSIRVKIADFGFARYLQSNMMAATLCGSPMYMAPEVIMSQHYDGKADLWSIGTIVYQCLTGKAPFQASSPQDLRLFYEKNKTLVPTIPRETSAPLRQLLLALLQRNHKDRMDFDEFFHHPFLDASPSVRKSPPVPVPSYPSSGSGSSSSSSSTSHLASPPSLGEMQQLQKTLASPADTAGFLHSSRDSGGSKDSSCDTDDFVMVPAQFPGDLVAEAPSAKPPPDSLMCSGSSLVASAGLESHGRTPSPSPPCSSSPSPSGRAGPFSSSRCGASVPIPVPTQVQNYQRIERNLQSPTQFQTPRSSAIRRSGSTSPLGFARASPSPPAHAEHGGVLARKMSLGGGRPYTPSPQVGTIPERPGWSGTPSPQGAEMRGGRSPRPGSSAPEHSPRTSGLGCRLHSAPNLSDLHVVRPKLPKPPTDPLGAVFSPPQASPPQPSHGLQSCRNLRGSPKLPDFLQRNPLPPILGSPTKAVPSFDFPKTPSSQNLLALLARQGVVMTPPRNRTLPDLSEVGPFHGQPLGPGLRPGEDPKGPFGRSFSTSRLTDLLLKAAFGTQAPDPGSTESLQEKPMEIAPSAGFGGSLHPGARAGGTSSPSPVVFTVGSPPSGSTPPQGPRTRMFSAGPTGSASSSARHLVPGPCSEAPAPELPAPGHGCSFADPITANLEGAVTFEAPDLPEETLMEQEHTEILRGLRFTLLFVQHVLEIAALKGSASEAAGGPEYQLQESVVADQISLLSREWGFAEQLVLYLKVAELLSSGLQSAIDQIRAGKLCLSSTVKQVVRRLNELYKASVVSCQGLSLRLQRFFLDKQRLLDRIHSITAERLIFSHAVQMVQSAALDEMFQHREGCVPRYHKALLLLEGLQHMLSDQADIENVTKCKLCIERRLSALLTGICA
In short: as §1

PKCD = PKCD (Homo sapiens, UniProt Q05655); conditions: read-out: residual enzyme activity
In short: as §1

P38B/MAPK11 = P38B/MAPK11 (Homo sapiens, UniProt Q15759); conditions: read-out: residual enzyme activity
In short: as §1

AURORA C = AURORA C (Homo sapiens, UniProt Q9UQB9); conditions: read-out: residual enzyme activity
In short: as §1

MST1/STK4 = MST1/STK4 (Homo sapiens, UniProt Q13043); conditions: MST1/STK4, 1 µM; read-out: residual enzyme activity
In short: as §1

SMILES | remaining activity at 1 µM (KDR/VEGFR2) [%] | remaining activity at 1 µM (CDK16/CYCLIN Y (PCTAIRE)) [%] | remaining activity at 1 µM (IRR/INSRR) [%] | remaining activity at 1 µM (MLK4) [%] | remaining activity at 1 µM (BRSK2) [%] | remaining activity at 1 µM (TTBK1) [%] | remaining activity at 1 µM (SIK1) [%] | remaining activity at 1 µM (TTBK2) [%] | remaining activity at 1 µM (CDK2/CYCLIN A) [%] | remaining activity at 1 µM (PBK/TOPK) [%] | remaining activity at 1 µM (CDK1/CYCLIN B) [%] | remaining activity at 1 µM (MYLK3) [%] | remaining activity at 1 µM (CAMK4) [%] | remaining activity at 1 µM (MSK1/RPS6KA5) [%] | remaining activity at 1 µM (RSK1) [%] | remaining activity at 1 µM (ROCK2) [%] | remaining activity at 1 µM (NEK7) [%] | remaining activity at 1 µM (DRAK1/STK17A) [%] | remaining activity at 1 µM (ALK4/ACVR1B) [%] | remaining activity at 1 µM (HIPK3) [%] | further results
Cc1ccc(Nc2ncc3c(n2)C2(CC2)C(=O)N(c2cc(NC(=O)c4cccc(C(F)(F)F)c4)ccc2C)C3)cn1 [Compound 51, N-(4-methyl-3-(2'-((6-methylpyridin-3-yl)amino)-7'-oxo-5'H-spiro[cyclopropane-1,8'-pyrido[4,3-d]pyrimidine]-6'(7'H)-yl)phenyl)-3-(trifluoromethyl)benzamide] | ≤ 40 | > 40 | > 40 | > 40 | > 40 | > 40 | ≤ 40 | > 40 | > 40 | > 40 | > 40 | > 40 | > 40 | > 40 | ≤ 40 | > 40 | > 40 | > 40 | > 40 | > 40 | remaining activity at 1 µM (C-KIT; c-Kit): ≤ 40%; remaining activity at 1 µM (CK2A; CK2a): > 40%; remaining activity at 1 µM (CAMK2D; CAMK2d): > 40%; remaining activity at 1 µM (MAPKAPKS/PRAK): > 40%; remaining activity at 1 µM (FGFR1): ≤ 40%; remaining activity at 1 µM (TAOK3/JIK): ≤ 40%; residual enzyme activity (ARAF): O (residual enzyme activity values were 40% or less, i.e., inhibited by 60% or more); remaining activity at 1 µM (RSK2): > 40%; remaining activity at 1 µM (GRK3): > 40%; remaining activity at 1 µM (ULK1): > 40%; remaining activity at 1 µM (PKCD): > 40%; remaining activity at 1 µM (P38B/MAPK11; P38b/MAPK11, 1 µM): ≤ 40%; remaining activity at 1 µM (AURORA C): > 40%; remaining activity at 1 µM (MST1/STK4): > 40%
Cc1cn(-c2cc(C(=O)Nc3ccc(C)c(N4Cc5cnc(NC6CC6)nc5C5(CC5)C4=O)c3)cc(C(F)(F)F)c2)cn1 [Compound 8, N-(3-(2'-(cyclopropylamino)-7'-oxo-5'H-spiro[cyclopropane-1,8'-pyrido[4,3-d]pyrimidine]-6'(7'H)-yl)-4-methylphenyl)-3-(4-methyl-1H-imidazol-1-yl)-5-(trifluoromethyl)benzamide] | ≤ 40 | > 40 | > 40 | > 40 | > 40 | > 40 | ≤ 40 | > 40 | > 40 | > 40 | > 40 | > 40 | > 40 | > 40 | ≤ 40 | > 40 | > 40 | > 40 | > 40 | > 40 | remaining activity at 1 µM (C-KIT; C-KIT): ≤ 40%; remaining activity at 1 µM (CK2A; CK2A): > 40%; remaining activity at 1 µM (CAMK2D; CAMK2D): > 40%; remaining activity at 1 µM (MAPKAPKS/PRAK): > 40%; remaining activity at 1 µM (FGFR1): ≤ 40%; remaining activity at 1 µM (TAOK3/JIK): ≤ 40%; residual enzyme activity (ARAF): O (residual enzyme activity values were 40% or less, i.e., inhibited by 60% or more); remaining activity at 1 µM (RSK2): > 40%; remaining activity at 1 µM (GRK3): > 40%; remaining activity at 1 µM (ULK1): > 40%; remaining activity at 1 µM (PKCD): > 40%; remaining activity at 1 µM (P38B/MAPK11; P38B/MAPK11, 1 µM): ≤ 40%; remaining activity at 1 µM (AURORA C): > 40%; remaining activity at 1 µM (MST1/STK4): > 40%
